Measurements taken from US20170217956A1, “AZAINDOLE RETINOIC ACID RECEPTOR-RELATED ORPHAN RECEPTOR MODULATORS AND USES THEREOF” (INNOV17 LLC, priority 2014, published 2017).

Experiments:
Format in all cases: cell-based
Conditions in all cases: 72 h; human CD4+ T cells under TH17-polarizing conditions, 3 days, supernatant ELISA, 0.1% DMSO
[1] = tested on: IL-21; assay: Human TH17 cytokine inhibition as measured by ELISA (IL-21)
Method: (§1) Peripheral blood mononuclear cells (PBMCs) were sourced from freshly prepared leukocyte enriched plasma (buffy coat) from healthy donors (New York Blood Center). PBMCs were isolated by density gradient centrifugation using Ficoll-Paque™ PLUS (GE Healthcare). Human CD4+ T cells were seeded into 96-well plates (5×10^4 cells/well) and activated with plate-bound anti-human (h)-CD3 antibody and soluble h-aCD28 (both at 1 ug/ml; eBioscience) and differentiated into TH17 cells with 20 ng/mL h-IL-6, 5 ng/mL h-TGF-β1, 10 ng/mL h-IL-23 (eBioscience) and 10 ng/mL IL-1β (Miltenyi Biotec) in serum-free TexMACS Medium (Miltenyi Biotec) supplemented with 1% Penicillin/Streptomycin (Lonza) for 3 days. CD4+ T cells propagated under TH17-polarizing conditions were cultured in the presence or absence of various concentrations of compounds with a final concentration of 0.1% DMSO. Supernatants were collected and stored at −20° C. until assayed for IL-17A, IL-17F and IL-21 levels by “Ready-Set-Go” ELISA kits (eBioscience) as per manufacturer's instructions. Endpoint absorbance was read at 450 nm using a microplate reader (Perkin Elmer).

[2] = tested on: IL-17F; assay: Human TH17 cytokine inhibition as measured by ELISA (IL-17F)
Method: as §1

[3] = tested on: IL-17A; assay: Human TH17 cytokine inhibition as measured by ELISA (IL-17A)
Method: as §1

[4] = tested on: IL-22; assay: Human TH17 cytokine inhibition as measured by ELISA (IL-22)

Measured: IC50

C[C@H]1C[C@H](Cn2ccc3nc(-c4cn[nH]c4)ccc32)CN1C(=O)CCc1ccccc1 (racemic) [Example 40, rac.-trans-1-(4-((5-(1H-pyrazol-4-yl)-1H-pyrrolo[3,2-b]pyridin-1-yl)methyl)-2-methylpyrrolidin-1-yl)-3-phenylpropan-1-one]
< 10 µM: all assays above

C[C@@H]1C[C@H](Cn2ccc3nc(-c4cn[nH]c4)ccc32)CN1C(=O)CCc1ccccc1 (racemic) [Example 41, rac.-cis-1-(4-((5-(1H-pyrazol-4-yl)-1H-pyrrolo[3,2-b]pyridin-1-yl)methyl)-2-methylpyrrolidin-1-yl)-3-phenylpropan-1-one]
< 10 µM: [1] | [2] | [3]
